Experiments:
Motesanib + Luminespib = compound: CC1(C)CNc2cc(NC(=O)c3cccnc3NCc3ccncc3)ccc21 [Motesanib] + CCNC(=O)c1noc(-c2cc(C(C)C)c(O)cc2O)c1-c1ccc(CN2CCOCC2)cc1 [Luminespib] (partner 0.01 µM); assay: relative viability (nuclei count vs DMSO), 5 days (fraction); higher = more cells survive
Procedure, shortened: (§1)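 Dosing by pin tool came one day after lung cancer cell lines were seeded in 1536-well plates, using either one drug or a fixed anchor-drug dose plus five library-drug doses (not always all listed) in √10 steps. After 5 days, nuclei were counted on 4× images. Relative viability is treated-well nuclei count divided by vehicle-well nuclei count, and values are medians of duplicate plates.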

Motesanib + Dasatinib = compound: CC1(C)CNc2cc(NC(=O)c3cccnc3NCc3ccncc3)ccc21 [Motesanib] + Cc1nc(Nc2ncc(C(=O)Nc3c(C)cccc3Cl)s2)cc(N2CCN(CCO)CC2)n1 [Dasatinib] (partner 0.075 µM); assay: as above
Procedure, shortened: as §1

Row | Cell Line | relative viability (Motesanib + Luminespib; first compound 0.01 µM) | relative viability (Motesanib + Luminespib; first compound 0.03162 µM) | relative viability (Motesanib + Luminespib; first compound 0.1 µM) | relative viability (Motesanib + Luminespib; first compound 0.3162 µM) | relative viability (Motesanib + Luminespib; first compound 1 µM) | relative viability (Motesanib + Dasatinib; first compound 0.01 µM) | relative viability (Motesanib + Dasatinib; first compound 0.03162 µM) | relative viability (Motesanib + Dasatinib; first compound 0.1 µM) | relative viability (Motesanib + Dasatinib; first compound 0.3162 µM) | relative viability (Motesanib + Dasatinib; first compound 1 µM)
1 | NCI-H838 | 0.316 | 0.295 | 0.355 | 0.286 | 0.216 | 0.301 | 0.274 | 0.333 | 0.307 | 0.391
2 | HARA | 0.894 | 0.628 | 0.786 | 0.871 | 0.612 | 0.225 | 0.2 | 0.215 | 0.303 | 0.3
3 | NCI-H2087 | 0.159 | 0.174 | 0.149 | 0.149 | 0.145 | 0.838 | 0.841 | 0.774 | 0.91 | 0.895
4 | NCI-H1437 | 1.13 | 1.07 | 1.08 | 1.1 | 1.15 | 0.266 | 0.22 | 0.383 | 0.575 | 0.405
5 | NCI-H1792 | 0.447 | 0.428 | 0.406 | 0.501 | 0.466 |  | 0.749 | 0.808 | 0.953 | 0.767
6 | ChaGo-K-1 | 0.525 | 0.656 | 0.589 | 0.552 | 0.588 | 0.55 | 0.535 | 0.544 | 0.696 | 0.691
7 | NCI-H650 | 0.788 |  | 0.81 | 0.837 | 0.801 | 0.399 |  | 0.442 | 0.501 | 0.444
8 | COR-L23 | 0.605 | 0.694 | 0.728 | 0.665 | 0.738 | 0.561 | 0.59 | 0.515 | 0.499 | 0.451
9 | COR-L 105 | 0.737 | 0.894 | 0.896 | 0.73 | 0.843 | 0.407 | 0.243 | 0.308 | 0.401 | 0.394
10 | LK-2 | 0.213 | 0.191 |  | 0.189 | 0.192 | 0.322 | 0.212 |  | 0.379 | 0.245
11 | 201T | 1.02 | 1.02 | 1.11 | 1.01 | 1.05 | 0.575 | 0.519 | 0.559 | 0.595 | 0.535
12 | HCC-44 | 1.07 | 0.964 | 0.884 | 1.24 | 1.2 |  |  |  |  | 
13 | NCI-H596 | 1.17 | 0.917 | 1.07 | 0.988 | 0.871 | 0.651 | 0.543 | 0.534 | 0.563 | 0.53
14 | H3255 | 0.872 | 0.954 | 0.942 | 1.06 | 0.902 | 0.304 | 0.38 | 0.473 | 0.302 | 0.338

— the supplement of paper PMC10307832
